# Assay results published in patent US4740476A, “Immunoassay for estriol-3-sulfate” (Nihon Medi-Physics Co., Ltd., priority 1984, dated 1988).
# Structures can show the parent of a compound that is named as a salt.
# Test system: anti-estriol-3-sulfate antibody immobilized on Sepharose 4B
# Test: Cross-reaction of various steroids in the radioimmunoassay (50% inhibition of labeled estriol-3-sulfate binding)
# Set-up: species or system guinea pig
# Settings: mass ratio of non-labeled estriol-3-sulfate to each steroid required for 50% inhibition of labeled estriol-3-sulfate binding
# Experimental: (§1) A plasma specimen (0.1 ml) diluted with tris-HCl buffer (0.1 mol/liter; pH, 8.3) (containing glutamine (0.1 mol/liter)) was added thereto, and the resulting solution was incubated at 4° C. for 16 hours. The mixture was centrifuged at 3500 rpm for 20 minutes. A 0.2 ml aliquot of each supernatant was taken into a counting vial and admixed with Bray's scintillator, and radioactivity was counted in an Aloka LSC-673 liquid scintillation spectrometer.
# The cross-reactivity is determined by calculating the mass ratio of non-labeled estriol-3-sulfate to each steriod required to show 50% inhibition of the labeled estiol-3-sulfate binding to the antibody.
row,SMILES,Cross-reaction (%)
1,COc1ccc2c(c1)CC[C@@H]1[C@@H]2CC[C@]2(C)C(=O)CC[C@@H]12 [Estrone methyl ether],< 0.001
2,C[C@]12CC[C@@H]3c4ccc(O)c(O)c4CC[C@H]3[C@@H]1CCC2=O [4-Hydroxyestrone],< 0.001
3,"C[C@]12CCC(=O)C=C1CC[C@@H]1[C@@H]2CC[C@]2(C)C(=O)CC[C@@H]12 [4-Androsterone-3,17-dione]",< 0.001
4,C[C@]12CC[C@@H]3c4ccc(O)cc4CC[C@H]3[C@@H]1C[C@@H](O[C@@H]1O[C@H](C(=O)O)[C@@H](O)[C@H](O)[C@H]1O)[C@@H]2O [Estriol-16-glucuronide],< 0.001
5,C[C@]12CC[C@@H]3c4ccc(O)cc4CC[C@H]3[C@@H]1C[C@@H](O)[C@@H]2O[C@@H]1O[C@H](C(=O)O)[C@@H](O)[C@H](O)[C@H]1O [Estriol-17-glucuronide],< 0.001
6,C[C@]12CC[C@@H]3c4ccc(OS(=O)(=O)O)cc4CC[C@H]3[C@@H]1C[C@@H](O)[C@@H]2O [Estriol-3-sulfate],100
7,C[C@]12CC[C@@H]3c4ccc(O)cc4CC[C@H]3[C@@H]1C[C@H](O)[C@@H]2O [16-Epiestriol],< 0.001
8,C[C@]12CC[C@@H]3c4ccc(O)cc4CC[C@H]3[C@@H]1CC[C@@H]2O [Estradiol],< 0.001
9,C[C@]12CC[C@@H]3c4ccc(OS(=O)(=O)O)cc4CC[C@H]3[C@@H]1CC[C@@H]2O [Estradiol-3-sulfate],0.144
10,C[C@]12C[C@H](O)[C@H]3[C@@H](CCC4=CC(=O)CC[C@@]43C)[C@@H]1CC[C@@H]2C(=O)CO [Corticosterone],< 0.001
11,C[C@]12CC[C@@H]3c4ccc(O)cc4CC[C@H]3[C@@H]1CC[C@@H]2O[C@@H]1O[C@H](C(=O)O)[C@@H](O)[C@H](O)[C@H]1O [Estradiol-17-glucuronide],< 0.001
12,CC(C)CCC[C@@H](C)[C@H]1CC[C@H]2[C@@H]3CC=C4C[C@@H](O)CC[C@]4(C)[C@H]3CC[C@]12C [Cholesterol],< 0.001
13,C[C@]12CC[C@@H]3c4ccc(O[C@@H]5O[C@H](C(=O)O)[C@@H](O)[C@H](O)[C@H]5O)cc4CC[C@H]3[C@@H]1CCC2=O [Estrone glucuronide],< 0.001
14,C[C@]12CC[C@H](OS(=O)(=O)O)CC1=CC[C@@H]1[C@@H]2CC[C@]2(C)C(=O)CC[C@@H]12 [Dehydroepiandrosterone sulfate],0.077
15,C[C@]12CC[C@@H]3c4ccc(OS(=O)(=O)O)cc4CC[C@H]3[C@@H]1CCC2=O [Estrone sulfate],0.060
16,CC(=O)[C@H]1CC[C@H]2[C@@H]3CCC4=CC(=O)CC[C@]4(C)[C@H]3CC[C@]12C [Progesterone],< 0.001
17,C[C@]12CC[C@@H]3c4ccc(O[C@@H]5O[C@H](C(=O)O)[C@@H](O)[C@H](O)[C@H]5O)cc4CC[C@H]3[C@@H]1C[C@@H](O)[C@@H]2O [Estriol-3-glucuronide],0.050
18,C[C@]12CC[C@@H](O)C[C@@H]1CC[C@@H]1[C@@H]2CC[C@]2(C)C(=O)CC[C@@H]12 [Androsterone],< 0.001
19,C[C@]12CC[C@@H]3c4cc(O)c(O)cc4CC[C@H]3[C@@H]1CCC2=O [2-Hydroxyestrone],< 0.001
20,C[C@]12CC[C@@H]3c4ccc(O)cc4CC[C@H]3[C@@H]1CCC2=O [Estrone],< 0.001
21,C[C@]12CC[C@H]3[C@@H](CCC4=CC(=O)CC[C@@]43C)[C@@H]1CC[C@@H]2OS(=O)(=O)O [Testosterone sulfate],0.004
22,C[C@]12CC[C@H](O)CC1=CC[C@@H]1[C@@H]2CC[C@]2(C)C(=O)CC[C@@H]12 [Dehydroepiandrosterone],< 0.001
23,CC(C)CCC[C@@H](C)[C@H]1CC[C@H]2[C@@H]3CC=C4C[C@@H](OS(=O)(=O)O)CC[C@]4(C)[C@H]3CC[C@]12C [Cholesterol sulfate],0.081
24,C[C@]12CC[C@H]3[C@@H](CCC4=CC(=O)CC[C@@]43C)[C@@H]1CC[C@@H]2O [Testosterone],< 0.001
25,C[C@]12CC[C@@H]3c4ccc(O)cc4CC[C@H]3[C@@H]1C[C@@H](O)[C@@H]2O [Estriol],0.033

# Same assay, conditions: mass ratio of non-labeled estriol-3-sulfate to each steroid required for 50% inhibition of labeled estriol-3-sulfate binding; listed as dehydroepiandrosterone sulfate
row,SMILES,Cross-reaction (%)
1,C[C@]12CC[C@H](OS(=O)(=O)O)CC1=CC[C@@H]1[C@@H]2CC[C@]2(C)C(=O)CC[C@@H]12 [Dehydroepiandrosterone sulfate],0.77

# Molecular target: anti-estriol-3-sulfate antibody immobilized on Sepharose 4B
# Test: Scatchard plot of [3H]-estriol-3-sulfate binding to immobilized antibody
# Set-up: species or system guinea pig
# Settings: immobilized antibody 1:500, incubation at 4° C. for 16 hours
# Experimental: as §1, with “spectrometer. […] FIG. 1 of the accompanying drawing showing the Scatchard plot graph of anti-estriol-3-sulfate antibody immobilized on Sepharose 4B).” for “spectrometer.”
row,SMILES,association constant (Ka) [L/mol]
1,C[C@]12CC[C@@H]3c4ccc(OS(=O)(=O)O)cc4CC[C@H]3[C@@H]1C[C@@H](O)[C@@H]2O [Estriol-3-sulfate],4.3e+09
